Assay results published in patent publication US20250282749A1 (Tango Therapeutics, Inc., priority 2022, published 2025).
pIC50: −log10 of the molar value.

How the values were obtained:
Type in all cases: cell-based
[1] = system: PRMT5 (SDMA) in HAP1 MTAP-deleted cell line; assay: SDMA in-cell western assay, HAP1 MTAP-deleted cell line; conditions: for pIC50 / IC90: Homo sapiens, SDMA in-cell western, HAP1 MTAP-deleted (MTAP-null) cell line; for Hap1 MTAP intact/deleted ratio: ratio of SDMA in-cell western IC50 in HAP1 MTAP-intact to IC50 in HAP1 MTAP-deleted cell line
Source text: (§1) HAP1 MTAP-intact is a cell line in which endogenous levels of MTAP are expressed, and HAP1 MTAP-deleted is an MTAP-null cell line.

[2] = system: PRMT5 (SDMA) in HAP1 MTAP-intact cell line; assay: SDMA in-cell western assay, HAP1 MTAP-intact cell line; conditions: Homo sapiens, HAP1 MTAP-intact cell line (endogenous MTAP), read-out: Hap 1 MTAP intact IC50
Source text: as §1

[3] = system: HAP1 MTAP-deleted cell line; assay: viability assay for the MTAP-deleted cell line; conditions: Homo sapiens

Compound	pIC50 [1]	IC90 [1]	Hap1 MTAP intact/deleted ratio [1]	pIC50 [2]	pIC50 [3]
C[C@@H]1CN(C(=O)C(=O)Nc2cncc3cn[nH]c23)[C@@H](c2ccccc2)CN1C(=O)C1(C)CC1 [Compound 91, 2-((2S,5R)-5-methyl-4-(1-methylcyclopropanecarbonyl)-2-phenylpiperazin-1-yl)-2-oxo-N-(1H-pyrazolo[4,3-c]pyridin-7-yl)acetamide]	7.30 to 8.30	> 0.125 µM	B (an IC50 ratio greater than or equal to 15 fold but lower than 30 fold)	< 7.30	> 7.00
CC(C)C(=O)N1C[C@H](c2ccc3scnc3c2)N(C(=O)C(=O)Nc2cnc(N)c(C3CC3)c2)C[C@H]1C [Compound 93, N-(6-amino-5-cyclopropyl-3-pyridyl)-2-[(2S,5R)-2-(1,3-benzothiazol-5-yl)-5-methyl-4-(2-methylpropanoyl)piperazin-1-yl]-2-oxo-acetamide]	7.30 to 8.30	< 0.075 µM	C (an IC50 ratio of less than 15 fold)	7.30 to 8.30	> 7.00
C[C@@H]1CN(C(=O)C(=O)Nc2cnc(N)c(C3CC3)c2)[C@@H](c2ccccc2)CN1C(=O)C1(C)CC1 [Compound 94, N-(6-amino-5-cyclopropylpyridin-3-yl)-2-((2S,5R)-5-methyl-4-(1-methylcyclopropanecarbonyl)-2-phenylpiperazin-1-yl)-2-oxoacetamide]	> 8.30	0.075 to 0.125 µM	B (an IC50 ratio greater than or equal to 15 fold but lower than 30 fold)	< 7.30	> 7.00
CCc1cc(NC(=O)C(=O)N2C[C@@H](C)OC[C@@H]2c2ccc3sc(C4CCN(C)CC4)nc3c2)cnc1N [Compound 96]	7.30 to 8.30	0.075 to 0.125 µM	B (an IC50 ratio greater than or equal to 15 fold but lower than 30 fold)	< 7.30	> 7.00
C[C@@H]1CN(C(=O)C(=O)Nc2cnc(N)c(C3CC3)c2)[C@@H](c2ccccc2)CN1C(=O)C(C)(C)C [Compound 97, N-(6-amino-5-cyclopropylpyridin-3-yl)-2-((2S,5R)-5-methyl-2-phenyl-4-pivaloylpiperazin-1-yl)-2-oxoacetamide]	> 8.30	< 0.075 µM	C (an IC50 ratio of less than 15 fold)	7.30 to 8.30	> 7.00
CC(C)C(=O)N1C[C@H](c2ccccc2)N(C(=O)C(=O)Nc2cnc(N)c(C3CC3)c2)C[C@H]1C [Compound 98, N-(6-amino-5-cyclopropylpyridin-3-yl)-2-((2S,5R)-4-isobutyryl-5-methyl-2-phenylpiperazin-1-yl)-2-oxoacetamide]	7.30 to 8.30	0.075 to 0.125 µM	C (an IC50 ratio of less than 15 fold)	< 7.30	> 7.00
Cc1cc(NC(=O)C(=O)N2C[C@@H](C)N(C(=O)C(C)(C)C)C[C@@H]2c2ccccc2)cnc1N [Compound 99, N-(6-amino-5-methylpyridin-3-yl)-2-((2S,5R)-5-methyl-2-phenyl-4-pivaloylpiperazin-1-yl)-2-oxoacetamide]	> 8.30	< 0.075 µM	C (an IC50 ratio of less than 15 fold)	7.30 to 8.30	> 7.00
C[C@@H]1CN(C(=O)C(=O)Nc2cncc3cn[nH]c23)[C@@H](c2ccccc2)CN1C(=O)C1(C(F)(F)F)CC1 [Compound 100, 2-((2S,5R)-5-methyl-2-phenyl-4-(1-(trifluoromethyl)cyclopropanecarbonyl)piperazin-1-yl)-2-oxo-N-(1H-pyrazolo[4,3-c]pyridin-7-yl)acetamide]	7.30 to 8.30	> 0.125 µM	C (an IC50 ratio of less than 15 fold)	< 7.30	> 7.00
Cc1cc(NC(=O)C(=O)N2C[C@@H](C)N(C(=O)OC(C)(C)C)C[C@@H]2c2ccc(F)cc2)cnc1N [Compound 101]	> 8.30	< 0.075 µM	B (an IC50 ratio greater than or equal to 15 fold but lower than 30 fold)	< 7.30	> 7.00
CCc1cc(NC(=O)C(=O)N2C[C@@H](C)N(C(=O)C3(C)CC3)C[C@@H]2c2ccc(N3CCN(C)CC3)cc2)cnc1N [Compound 105, N-(6-amino-5-ethylpyridin-3-yl)-2-((2S,5R)-5-methyl-4-(1-methylcyclopropanecarbonyl)-2-(4-(4-methylpiperazin-1-yl)phenyl)piperazin-1-yl)-2-oxoacetamide]	> 8.30	< 0.075 µM	B (an IC50 ratio greater than or equal to 15 fold but lower than 30 fold)	< 7.30	> 7.00
C[C@@H]1CN(C(=O)C(=O)Nc2cnc(N)c3cn[nH]c23)[C@@H](c2ccccc2)CO1 [Compound 107]	> 8.30	< 0.075 µM	A (an IC50 ratio greater than or equal to 30 fold)	< 7.30	6.00 to 7.00
Cc1cc(NC(=O)C(=O)N2C[C@@H](C)N(C(=O)C(C)(C)CN3CCn4ccnc4C3)C[C@@H]2c2ccccc2)cnc1N [Compound 109]	7.30 to 8.30	> 0.125 µM	C (an IC50 ratio of less than 15 fold)	< 7.30	6.00 to 7.00
CCc1cc(NC(=O)C(=O)N2C[C@@H](C)N(C(=O)C(C)(C)C)C[C@@H]2c2cccc(N3CCN(C)CC3)c2)cnc1N [Compound 110, N-(6-amino-5-ethylpyridin-3-yl)-2-((2S,5R)-5-methyl-2-(3-(4-methylpiperazin-1-yl)phenyl)-4-pivaloylpiperazin-1-yl)-2-oxoacetamide]	> 8.30	< 0.075 µM	C (an IC50 ratio of less than 15 fold)	> 8.30	> 7.00
Cc1cc(NC(=O)C(=O)N2C[C@@H](C)N(C(=O)C3(C(F)(F)F)CC3)C[C@@H]2c2cccs2)cnc1N [Compound 111, N-(6-amino-5-methyl-3-pyridyl)-2-[(2R,5R)-5-methyl-2-(2-thienyl)-4-[1-(trifluoromethyl)cyclopropanecarbonyl]piperazin-1-yl]-2-oxo-acetamide]	> 8.30	0.075 to 0.125 µM	C (an IC50 ratio of less than 15 fold)	7.30 to 8.30	> 7.00
C[C@@H]1CN(C(=O)C(=O)Nc2cnc(N)c(C3CC3)c2)[C@@H](c2ccc(F)cc2)CN1C(=O)C1(C(F)(F)F)CC1 [Compound 112, N-(6-amino-5-cyclopropylpyridin-3-yl)-2-((2S,5R)-2-(4-fluorophenyl)-5-methyl-4-(1-(trifluoromethyl)cyclopropanecarbonyl)piperazin-1-yl)-2-oxoacetamide]	7.30 to 8.30	0.075 to 0.125 µM	C (an IC50 ratio of less than 15 fold)	< 7.30	> 7.00
CC(C)C(=O)N1C[C@H](c2cccc(N3CCN(C)CC3)c2)N(C(=O)C(=O)Nc2cncc3cn[nH]c23)C[C@H]1C [Compound 113, 2-((2S,5R)-4-isobutyryl-5-methyl-2-(3-(4-methylpiperazin-1-yl)phenyl)piperazin-1-yl)-2-oxo-N-(1H-pyrazolo[4,3-c]pyridin-7-yl)acetamide]	7.30 to 8.30	> 0.125 µM	C (an IC50 ratio of less than 15 fold)	< 7.30	> 7.00
CC(C)C(=O)N1C[C@@H](c2ccc(F)cc2)N(C(=O)C(=O)Nc2cnc(N)c(C3CC3)c2)C[C@@H]1C [Compound 115, N-(6-amino-5-cyclopropyl-3-pyridyl)-2-[(2R,5S)-2-(4-fluorophenyl)-5-methyl-4-(2-methylpropanoyl)piperazin-1-yl]-2-oxo-acetamide]	< 7.30	> 0.125 µM	C (an IC50 ratio of less than 15 fold)	< 7.30	< 6.00
CCc1cc(NC(=O)C(=O)N2C[C@@H](C)N(C(=O)C3(C(F)(F)F)CC3)C[C@@H]2c2ccc(F)cc2)cnc1N [Compound 116, N-(6-amino-5-ethylpyridin-3-yl)-2-((2S,5R)-2-(4-fluorophenyl)-5-methyl-4-(1-(trifluoromethyl)cyclopropanecarbonyl)piperazin-1-yl)-2-oxoacetamide]	> 8.30	< 0.075 µM	A (an IC50 ratio greater than or equal to 30 fold)	< 7.30	> 7.00
Cc1cc(NC(=O)C(=O)N2C[C@@H](C)N(C(=O)C(C)C)C[C@@H]2c2cccc(N3CCN(C)CC3)c2)cnc1N [Compound 117, N-(6-amino-5-methylpyridin-3-yl)-2-((2S,5R)-4-isobutyryl-5-methyl-2-(3-(4-methylpiperazin-1-yl)phenyl)piperazin-1-yl)-2-oxoacetamide]	7.30 to 8.30	< 0.075 µM	C (an IC50 ratio of less than 15 fold)	7.30 to 8.30	> 7.00
Cc1cc(NC(=O)C(=O)N2C[C@@H](C)N(C(=O)C3(C(F)(F)F)CC3)C[C@@H]2c2ccc(Cl)c(Cl)c2)cnc1N [Compound 119, N-(6-amino-5-methylpyridin-3-yl)-2-((2S,5R)-2-(3,4-dichlorophenyl)-5-methyl-4-(1-(trifluoromethyl)cyclopropanecarbonyl)piperazin-1-yl)-2-oxoacetamide]	7.30 to 8.30	0.075 to 0.125 µM	C (an IC50 ratio of less than 15 fold)	< 7.30	> 7.00
Cc1cc(NC(=O)C(=O)N2C[C@@H](C)N(C(=O)OC3(C)CC3)C[C@@H]2c2ccc(F)cc2)cnc1N [Compound 120]	7.30 to 8.30	0.075 to 0.125 µM	B (an IC50 ratio greater than or equal to 15 fold but lower than 30 fold)	< 7.30	6.00 to 7.00
